Assay: xn = mol fraction of the nth substance listed, in the solute-free solvent

CN1CCC(N(Cc2cccs2)c2ccccc2)CC1 + CCCO + O
solubility (g/100 g solution)
Conditions	278.15 K	283.15 K	288.15 K	293.15 K	298.15 K	303.15 K	308.15 K	313.15 K	318.15 K	323.15 K
x2 = 0.03225	0.166	0.176	0.187	0.203	0.221	0.243	0.267	0.289	0.318	0.348
x2 = 0.06974	0.411	0.434	0.458	0.492	0.533	0.581	0.632	0.682	0.743	0.808
x2 = 0.1139	0.734	0.774	0.815	0.873	0.943	1.02	1.11	1.2	1.3	1.41
x2 = 0.1666	1.05	1.11	1.18	1.26	1.36	1.48	1.61	1.73	1.88	2.04
x2 = 0.2307	1.32	1.4	1.49	1.6	1.73	1.89	2.06	2.22	2.41	2.62
x2 = 0.3103	1.55	1.66	1.77	1.91	2.08	2.26	2.48	2.69	2.93	3.18
x2 = 0.4117	1.77	1.9	2.04	2.21	2.4	2.63	2.87	3.13	3.45	3.75
x2 = 0.5454	1.97	2.13	2.3	2.5	2.74	3	3.31	3.62	3.96	4.32
x2 = 0.7297	2.09	2.27	2.47	2.7	2.97	3.26	3.62	3.98	4.36	4.77
